Measured values as given in ChEMBL document CHEMBL3091369, “Synthesis and structure-activity relationships of new carbonyl guanidine derivatives as novel dual 5-HT2B and 5-HT7 receptor antagonists” (Bioorg Med Chem, 2013).

Tests used:
[1] = biological target: T1, 5-hydroxytryptamine receptor 7 (Homo sapiens, UniProt P34969); experiment: Antagonist activity at human 5-HT7 receptor expressed in CHO cells assessed as inhibition of agonist-induced cAMP production at 10 uM incubated for 20 mins prior to substrate addition measured after 10 mins by EIA relative to control; assay type: functional, cell-based
[2] = biological target: T2, Adrenergic receptor alpha-1 (Homo sapiens, UniProt P35348+P25100+P35368); experiment: Binding affinity to adrenergic alpha1 receptor (unknown origin)
T2 sequence (P35348 whole entry): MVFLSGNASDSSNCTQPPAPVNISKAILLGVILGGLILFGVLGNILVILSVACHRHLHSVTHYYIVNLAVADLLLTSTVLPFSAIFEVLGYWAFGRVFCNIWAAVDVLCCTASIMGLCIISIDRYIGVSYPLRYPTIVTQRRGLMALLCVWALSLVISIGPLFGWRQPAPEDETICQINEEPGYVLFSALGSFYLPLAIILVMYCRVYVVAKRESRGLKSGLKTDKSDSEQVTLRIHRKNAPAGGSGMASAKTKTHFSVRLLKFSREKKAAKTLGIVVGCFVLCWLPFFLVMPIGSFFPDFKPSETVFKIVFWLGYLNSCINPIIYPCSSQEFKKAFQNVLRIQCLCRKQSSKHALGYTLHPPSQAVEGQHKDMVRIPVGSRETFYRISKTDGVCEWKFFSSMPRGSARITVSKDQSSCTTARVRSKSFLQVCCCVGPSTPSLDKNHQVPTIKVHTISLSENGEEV
T2 sequence (P25100 whole entry): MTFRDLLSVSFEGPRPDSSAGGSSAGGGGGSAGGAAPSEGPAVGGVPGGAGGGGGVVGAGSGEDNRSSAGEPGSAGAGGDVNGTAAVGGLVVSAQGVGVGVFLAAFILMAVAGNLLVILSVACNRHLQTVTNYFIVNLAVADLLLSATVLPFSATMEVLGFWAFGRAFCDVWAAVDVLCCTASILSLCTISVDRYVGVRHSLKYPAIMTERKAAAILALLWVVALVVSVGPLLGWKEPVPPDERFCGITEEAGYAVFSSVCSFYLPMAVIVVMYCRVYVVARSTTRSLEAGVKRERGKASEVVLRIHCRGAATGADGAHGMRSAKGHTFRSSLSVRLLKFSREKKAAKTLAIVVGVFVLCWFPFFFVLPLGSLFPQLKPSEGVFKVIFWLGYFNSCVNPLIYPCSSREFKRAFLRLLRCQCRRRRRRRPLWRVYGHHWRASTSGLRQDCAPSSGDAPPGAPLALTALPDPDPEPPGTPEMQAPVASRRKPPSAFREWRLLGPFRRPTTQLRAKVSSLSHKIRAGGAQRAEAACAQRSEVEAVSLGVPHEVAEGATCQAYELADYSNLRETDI
T2 sequence (P35368 whole entry): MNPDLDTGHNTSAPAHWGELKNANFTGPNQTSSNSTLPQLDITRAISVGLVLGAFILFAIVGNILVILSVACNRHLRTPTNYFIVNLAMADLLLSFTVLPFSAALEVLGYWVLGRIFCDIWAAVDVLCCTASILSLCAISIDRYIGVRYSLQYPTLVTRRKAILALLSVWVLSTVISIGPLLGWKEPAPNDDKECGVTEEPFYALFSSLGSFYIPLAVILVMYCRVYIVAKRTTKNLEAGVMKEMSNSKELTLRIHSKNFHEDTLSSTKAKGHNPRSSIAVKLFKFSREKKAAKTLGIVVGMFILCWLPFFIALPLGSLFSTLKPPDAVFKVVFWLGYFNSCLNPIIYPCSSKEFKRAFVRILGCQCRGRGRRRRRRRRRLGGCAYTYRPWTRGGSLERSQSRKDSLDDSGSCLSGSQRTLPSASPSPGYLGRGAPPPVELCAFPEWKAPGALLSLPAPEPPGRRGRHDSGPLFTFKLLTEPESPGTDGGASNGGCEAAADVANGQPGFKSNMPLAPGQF

[3] = biological target: T3, 5-hydroxytryptamine receptor 2B (Homo sapiens, UniProt P41595); experiment: Antagonist activity at human 5-HT2B receptor expressed in HEK293 cells coexpressing EBNA assessed as inhibition of 5-HT-induced IP metabolism incubated for 20 mins prior to substrate addition measured after 20 mins by liquid scintillation counting analysis; assay type: cell-based
Cavia porcellus [4] = experiment: Suppression of 5-HT induced dural FITC-labeled BSA extravasation in ip dosed Hartley guinea pig pretreated for 30 mins followed by FITC-labeled BSA administration measured after 16 hrs by fluorescence assay; assay type: functional, organism-based
D(2) dopamine receptor = D(2) dopamine receptor (Homo sapiens, UniProt P14416); experiment: Binding affinity to dopamine D2 receptor (unknown origin)
[5] = biological target: T4, Muscarinic acetylcholine receptor M1 (Homo sapiens, UniProt P11229); experiment: Binding affinity to muscarinic M1 receptor (unknown origin)
T4 sequence (P11229 whole entry): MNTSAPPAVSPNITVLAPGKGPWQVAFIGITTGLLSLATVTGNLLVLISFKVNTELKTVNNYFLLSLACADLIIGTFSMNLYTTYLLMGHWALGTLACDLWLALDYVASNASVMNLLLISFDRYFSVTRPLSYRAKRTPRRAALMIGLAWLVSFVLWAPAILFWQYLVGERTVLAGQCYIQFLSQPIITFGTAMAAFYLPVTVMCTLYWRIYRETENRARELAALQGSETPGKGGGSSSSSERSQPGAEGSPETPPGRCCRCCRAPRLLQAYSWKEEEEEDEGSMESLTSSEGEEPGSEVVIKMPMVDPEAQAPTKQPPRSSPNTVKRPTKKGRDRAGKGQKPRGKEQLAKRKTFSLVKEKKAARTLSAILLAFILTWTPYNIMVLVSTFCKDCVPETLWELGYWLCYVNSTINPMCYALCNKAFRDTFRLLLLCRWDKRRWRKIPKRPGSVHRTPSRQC

[6] = biological target: 5-hydroxytryptamine receptor 2A (Homo sapiens, UniProt P28223); experiment: Binding affinity to 5-HT2A receptor (unknown origin)
Cavia porcellus [7] = experiment: Suppression of 5-HT induced dural FITC-labeled BSA extravasation in po dosed Hartley guinea pig pretreated for 30 mins followed by FITC-labeled BSA administration measured after 16 hrs by fluorescence assay; assay type: functional, organism-based
[8] = Aqueous solubility of the compound in second liquid of Japanese pharmacopoeia at pH 6.8 after 20 hrs by liquid chromatographic analysis; assay type: physicochemical
[9] = biological target: T5, 5-hydroxytryptamine receptor 2C (Homo sapiens, UniProt P28335); experiment: Binding affinity to 5-HT2C receptor (unknown origin)
T5 sequence (P28335 whole entry): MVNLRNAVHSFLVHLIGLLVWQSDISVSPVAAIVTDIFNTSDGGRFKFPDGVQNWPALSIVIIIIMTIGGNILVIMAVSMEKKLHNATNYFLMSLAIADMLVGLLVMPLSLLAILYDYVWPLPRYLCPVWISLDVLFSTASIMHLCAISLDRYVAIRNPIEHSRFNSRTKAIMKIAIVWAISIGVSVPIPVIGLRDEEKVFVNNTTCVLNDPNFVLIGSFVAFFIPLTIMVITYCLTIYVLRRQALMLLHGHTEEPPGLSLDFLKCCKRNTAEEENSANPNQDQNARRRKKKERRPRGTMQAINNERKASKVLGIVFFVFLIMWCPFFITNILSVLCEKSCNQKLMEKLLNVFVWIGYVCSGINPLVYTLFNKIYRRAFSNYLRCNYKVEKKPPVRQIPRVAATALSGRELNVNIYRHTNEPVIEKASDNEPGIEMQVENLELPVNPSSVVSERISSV

Cavia porcellus [10] = experiment: Suppression of 5-HT induced dural FITC-labeled BSA extravasation in Hartley guinea pig at 3 mg/kg, ip pretreated for 30 mins followed by FITC-labeled BSA administration measured after 16 hrs by fluorescence assay relative to control; assay type: functional; settings: route intraperitoneal
[11] = biological target: T3, 5-hydroxytryptamine receptor 2B; experiment: Displacement of [3H]Mesulergine from human 5-HT2B receptor expressed in HEK293 cells by liquid scintillation counting analysis; assay type: cell-based
[12] = biological target: T1, 5-hydroxytryptamine receptor 7; experiment: Displacement of [3H]5-HT from human 5-HT7 receptor expressed in CHO cells by liquid scintillation counting analysis; assay type: cell-based

Sequence of D(2) dopamine receptor (P14416 whole entry): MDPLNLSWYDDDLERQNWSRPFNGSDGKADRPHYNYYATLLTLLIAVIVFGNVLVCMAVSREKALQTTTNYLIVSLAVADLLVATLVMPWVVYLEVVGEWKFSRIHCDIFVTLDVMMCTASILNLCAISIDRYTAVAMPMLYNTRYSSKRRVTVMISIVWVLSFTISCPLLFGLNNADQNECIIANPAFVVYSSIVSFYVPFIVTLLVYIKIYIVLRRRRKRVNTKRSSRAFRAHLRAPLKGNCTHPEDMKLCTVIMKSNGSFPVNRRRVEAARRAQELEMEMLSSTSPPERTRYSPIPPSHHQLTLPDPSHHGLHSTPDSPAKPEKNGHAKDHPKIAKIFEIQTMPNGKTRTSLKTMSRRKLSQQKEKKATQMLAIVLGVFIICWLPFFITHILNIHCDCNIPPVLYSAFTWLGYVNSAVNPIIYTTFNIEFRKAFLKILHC
T1 sequence (P34969 whole entry): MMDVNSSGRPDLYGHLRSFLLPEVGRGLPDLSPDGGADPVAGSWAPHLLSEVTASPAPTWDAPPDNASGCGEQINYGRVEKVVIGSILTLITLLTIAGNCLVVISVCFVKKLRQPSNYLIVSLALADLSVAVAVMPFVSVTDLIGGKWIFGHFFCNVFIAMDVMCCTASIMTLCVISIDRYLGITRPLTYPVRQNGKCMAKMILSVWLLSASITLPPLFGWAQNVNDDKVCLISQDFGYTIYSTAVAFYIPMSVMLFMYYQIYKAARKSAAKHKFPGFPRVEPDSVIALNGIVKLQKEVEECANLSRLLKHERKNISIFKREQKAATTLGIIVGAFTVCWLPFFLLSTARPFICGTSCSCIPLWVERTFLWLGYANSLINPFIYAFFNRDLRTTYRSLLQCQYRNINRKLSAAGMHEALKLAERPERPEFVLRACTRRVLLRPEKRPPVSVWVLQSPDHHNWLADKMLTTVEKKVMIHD
T3 sequence (P41595 whole entry): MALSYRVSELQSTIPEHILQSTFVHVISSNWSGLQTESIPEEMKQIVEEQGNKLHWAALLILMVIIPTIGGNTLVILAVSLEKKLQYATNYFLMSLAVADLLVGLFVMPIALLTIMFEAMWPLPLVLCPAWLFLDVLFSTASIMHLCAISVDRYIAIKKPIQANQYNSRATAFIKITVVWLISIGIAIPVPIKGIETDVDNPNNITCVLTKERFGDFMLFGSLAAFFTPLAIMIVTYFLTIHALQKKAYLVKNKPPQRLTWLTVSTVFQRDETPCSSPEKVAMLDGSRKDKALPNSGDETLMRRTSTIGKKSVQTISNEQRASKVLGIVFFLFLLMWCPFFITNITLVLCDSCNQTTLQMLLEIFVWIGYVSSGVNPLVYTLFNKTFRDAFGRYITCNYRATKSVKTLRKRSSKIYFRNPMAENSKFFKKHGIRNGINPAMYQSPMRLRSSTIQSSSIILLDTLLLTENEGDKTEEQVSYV
Sequence of 5-hydroxytryptamine receptor 2A (P28223 whole entry): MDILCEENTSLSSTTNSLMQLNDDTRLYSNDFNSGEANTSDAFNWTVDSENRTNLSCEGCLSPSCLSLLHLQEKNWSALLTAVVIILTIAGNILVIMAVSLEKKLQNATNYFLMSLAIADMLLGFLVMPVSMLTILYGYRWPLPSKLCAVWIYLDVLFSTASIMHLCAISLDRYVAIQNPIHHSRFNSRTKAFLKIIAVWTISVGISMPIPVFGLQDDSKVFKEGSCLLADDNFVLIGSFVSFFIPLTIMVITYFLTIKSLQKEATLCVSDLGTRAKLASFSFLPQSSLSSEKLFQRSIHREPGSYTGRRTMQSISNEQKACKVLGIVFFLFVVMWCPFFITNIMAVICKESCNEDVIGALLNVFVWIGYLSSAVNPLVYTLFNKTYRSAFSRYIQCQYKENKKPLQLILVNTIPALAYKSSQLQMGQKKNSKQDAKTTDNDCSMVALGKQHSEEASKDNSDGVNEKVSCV

With Cl.NC(N)=NC(=O)c1ccc2c(c1)C(O)c1ccccc1-2 (configuration not stated) the Imax [1] was 97%, the Ki [2] was > 1000 nM and the IC50 [3] was 19.6 nM. For the same compound, the Activity (Cavia porcellus [4]) was “Dose-dependent effect”, the Ki (D(2) dopamine receptor) was > 1000 nM and the Ki [5] was > 1000 nM. The Ki [6] was > 1000 nM, the Activity (Cavia porcellus [7]) was “Dose-dependent effect” and the solubility at 20 h [8] was < 10 µg/mL. For the same compound, the Ki [9] was > 1000 nM and the Activity (Cavia porcellus [10]) was 93%.
With NC(N)=NC(=O)c1ccc2c(c1)[nH]c1ccccc12 the Ki [11] was 10 nM and the Ki [12] was 42 nM.
In the case of NC(N)=NC(=O)c1cccc2c1-c1ccccc1C2, the Ki [11] is reported as 27.4 nM and the Ki [12] is reported as > 1000 nM.
With NC(N)=NC(=O)c1cccc2c1Cc1ccccc1-2 the Ki [11] was 1.1 nM and the Ki [12] was 239 nM.
With NC(N)=NC(=O)/C=C/c1ccc2c(c1)C(O)c1ccccc1-2 (configuration not stated) the Ki [11] was 52 nM and the Ki [12] was > 100 nM.
NC(N)=NC(=O)c1ccc2c(c1)C(=O)c1ccccc1-2 showed a Ki [11] of 0.4 nM and a Ki [12] of 185 nM.
For NC(N)=NC(=O)c1ccc2c(c1)Nc1ccccc1O2, the Ki [11] was 3.6 nM and the Ki [12] was 144 nM.
In the case of NC(N)=NC(=O)c1ccc2c(c1)oc1ccccc12, the Ki [11] is reported as 2.1 nM and the Ki [12] is reported as > 100 nM.
CN1CCC(=C2c3ccccc3CCc3sccc32)CC1 [PIZOTYLINE] showed a Ki [2] of 75 nM, a Ki [11] of 2 nM and a Ki [12] of 25 nM. It also gave a Ki (D(2) dopamine receptor) of 2.4 nM, a Ki [5] of 2 nM and a Ki [6] of 7.5 nM. It also gave a Ki [9] of 1.4 nM.
Compound CC(C)c1cc(-c2ccc(F)c3ccccc23)nc(N)n1 has an Activity (Cavia porcellus [10]) of 60%.
For NC(N)=NC(=O)c1ccc2c(c1)Cc1ccccc1-2, the Imax [1] was 98%, the Ki [2] was 790 nM and the IC50 [3] was 36.4 nM. It also gave a Ki [11] of 1.8 nM, a Ki [12] of 12.4 nM and a Ki (D(2) dopamine receptor) of 1400 nM. For the same compound, the Ki [5] was > 1000 nM, the Ki [6] was 1000 nM and the solubility at 20 h [8] was < 1 µg/mL. The Ki [9] was 200 nM.
For NC(N)=NC(=O)c1ccc2c(c1)Oc1ccccc1N2, the Ki [11] was 2.4 nM and the Ki [12] was > 1000 nM.
In the case of NC(N)=NC(=O)c1ccc2c(c1)-c1ccccc1C2O (configuration not stated), the Ki [11] is reported as 86.8 nM and the Ki [12] is reported as > 1000 nM.
